The OligoGym collection
These antisense oligonucleotides have a phosphorothioate backbone; sugars and methylation of C are not fully specified.

Biological target: SRA1
Settings: ASO
Further: test concentration or dose not given here.

Compared with CGGCAGTCTTCCAATGCC, GAGCCTCAGACTCGACTG is lower in remaining target (mRNA or protein) (fraction of control): no less than 1 for the first, 0.65 for the second.

Going from TTCTGCAATTAATCTTTT to CGTATGAGAACTGCGGCG, the remaining target (mRNA or protein) (fraction of control) rises from 0.59 to no less than 1.

First: CCATTCTCTTCTTTACAG
Second: AGAGGCAGGACCACTCCC
The remaining target (mRNA or protein) (fraction of control) of the first is lower: 0.6 for the first, 0.92 for the second.

Going from CTGACCTCAGTCACATGG to ACACATGAACTCCCTCTG, the remaining target (mRNA or protein) (fraction of control) falls from no less than 1 to 0.77.

Going from CCAGCAGATCCCTTCCTG to GGAGCCTTACTTGAAGGA, the remaining target (mRNA or protein) (fraction of control) falls from no less than 1 to 0.54.

GGATGCTTGTTCAGTCTA and GGTGGTGGTAAGAAGGGA cannot be ordered by remaining target (mRNA or protein) (fraction of control): no less than 1 for the first, no less than 1 for the second.

First: CGAGCGCCTGGGTCCGCC
Second: CTCGACTGGGAAACTTGT
The remaining target (mRNA or protein) (fraction of control) of the first is lower: 0.48 for the first, 0.63 for the second.

Compared with CCTGGGTCCGCCGGCCTG, GGCCCAGGAGAAGTCTCT is higher in remaining target (mRNA or protein) (fraction of control): 0.86 for the first, no less than 1 for the second.

Compared with TGTCATCACATACCTGCT, TTCCTTGTTGCCTGCGGA is lower in remaining target (mRNA or protein) (fraction of control): 0.76 for the first, 0.72 for the second.

Compared with CATCACATACCTGCTTCC, ACCTGCTTCCTTGTGTGG is lower in remaining target (mRNA or protein) (fraction of control): 0.68 for the first, 0.32 for the second.

First: CAGAGGTTTGCAGATACA
Second: CCTTGTGTGGCCACGGCA
The remaining target (mRNA or protein) (fraction of control) of the first is lower: 0.35 for the first, 0.43 for the second.

Compared with TGAAAGCTCTTGCACCAG, AACTTTCCTCCAGCCCAC is lower in remaining target (mRNA or protein) (fraction of control): 0.64 for the first, 0.21 for the second.

First: TTTACAGGTATTGACAAC
Second: TCACATGGTCAACCATGA
The remaining target (mRNA or protein) (fraction of control) of the first is higher: no less than 1 for the first, 0.93 for the second.

Compared with TTCCAAAGGTCTCAGCAC, CAACTTTCCTCCAGCCCA is lower in remaining target (mRNA or protein) (fraction of control): 0.49 for the first, 0.41 for the second.

First: TGGTATGGTTCTTCTCAG
Second: CAGCACATCCTCCATCAG
The remaining target (mRNA or protein) (fraction of control) of the first is lower: 0.58 for the first, 0.61 for the second.

Going from TCTCCAAGGCATAGGAGA to GAGGCCCAGGAGAAGTCT, the remaining target (mRNA or protein) (fraction of control) falls from 0.8 to 0.62.

First: GAGGGAGCGGTGGATGTC
Second: GCTCCGCCCAGCACAGGA
The remaining target (mRNA or protein) (fraction of control) of the first is higher: 0.48 for the first, 0.37 for the second.

Compared with CTCCTACCATCCACTGAC, GGCCTGGGTCTGCAGCCC is higher in remaining target (mRNA or protein) (fraction of control): 0.46 for the first, 0.94 for the second.

Compared with AAACTTGTGGGCTCCACG, TTGGTAAGCAGCGAGCGC is higher in remaining target (mRNA or protein) (fraction of control): 0.18 for the first, 0.56 for the second.

ACCCTCTTGGTAAGCAGC and CTTTCCTTTTGTTGAGGG cannot be ordered by remaining target (mRNA or protein) (fraction of control): no less than 1 for the first, no less than 1 for the second.

Going from TTTCACCGCAGAGATGTT to TCCAAAGGTCTCAGCACA, the remaining target (mRNA or protein) (fraction of control) falls from no less than 1 to 0.26.

First: ACCACTCCCCACAGGTGG
Second: GAGGCCCGGAACTCCACT
The remaining target (mRNA or protein) (fraction of control) of the first is higher: no less than 1 for the first, 0.89 for the second.

ACTGGGAAACTTGTGGGC and GGGTCCGCCGGCCTGGGT cannot be ordered by remaining target (mRNA or protein) (fraction of control): no less than 1 for the first, no less than 1 for the second.

Compared with AACCGAGGATTATGAAGC, CCAGCCGCGTTCCTTGTT is higher in remaining target (mRNA or protein) (fraction of control): 0.57 for the first, 0.69 for the second.

Compared with CTTTCCTCCAGCCCACTG, CTGCTGGAAGCCTGGTAT is higher in remaining target (mRNA or protein) (fraction of control): 0.36 for the first, 0.77 for the second.

Compared with GGTTCTTCTCAGCTGTGG, AAGGAGGTGGAGGCCCCA is higher in remaining target (mRNA or protein) (fraction of control): 0.49 for the first, 0.72 for the second.

First: GCCAGAGGCAGGACCACT
Second: TATGAAGCCTGCTGGAAG
The remaining target (mRNA or protein) (fraction of control) of the first is higher: 0.72 for the first, 0.64 for the second.

Compared with CCCCACTCAATGTGGTTC, GGAACCGAGGATTATGAA is higher in remaining target (mRNA or protein) (fraction of control): 0.31 for the first, 0.68 for the second.

Going from AGCGGTGGATGTCATCTG to CTCCATCAGTCGAGCCTC, the remaining target (mRNA or protein) (fraction of control) rises from 0.65 to no less than 1.

Going from CCACCGGTGGCTTGAAAG to TGACAACTTTCCTCCAGC, the remaining target (mRNA or protein) (fraction of control) falls from 0.85 to 0.15.

First: CCAGTAGAGCCATTCTCT
Second: GGGAGCCTTACTTGAAGG
The remaining target (mRNA or protein) (fraction of control) of the first is lower: 0.83 for the first, 0.88 for the second.

Compared with CTTTTAACTCCTACCATC, GTATGGTATGGTTCTTCT is higher in remaining target (mRNA or protein) (fraction of control): 0.43 for the first, 0.94 for the second.

TCTGCTGCGTCCCACCGG showed a remaining target (mRNA or protein) (fraction of control) of 0.32.

Biological target: not given
Settings: ASO

Compared with TTATTCATACCGTTGTTG, ACATTGAGGGAGTCGTTG is higher in remaining target (mRNA or protein) (fraction of control): 0.96 for the first, no less than 1 for the second.

First: TGGTGGAGTGCATAAGAGGC
Second: GGGTCCGTTCCCTCAACA
The remaining target (mRNA or protein) (fraction of control) of the first is lower: 0.47 for the first, no less than 1 for the second.

GTGGTTGCGTGCCGATTCAC and GAGGCGCTGCGGAACTTGGC are the same in remaining target (mRNA or protein) (fraction of control): 0.5 for the first, 0.5 for the second.
